Read-outs that look alike come from different tables or passages of the source.

The source of these data is US20240368214A1, “POSITIVE NMDA-MODULATING COMPOUNDS AND METHODS OF USE THEREOF” (SAGE THERAPEUTICS, INC., priority 2021, published 2024).

The assay has as its target T1, recombinant human GluN1/GluN2A receptor (Homo sapiens, UniProt Q05586+Q12879).
T1 construct: expressed in transfected cells; host or cells: HEK293, tetracycline-inducible expression
The assay can be described thus: Whole-cell patch clamp of mammalian cells (Syncropatch 384i), NMDA modulation. It is filed as cell-based. The note with it: HEK293 cells, human GluN1/GluN2A, glutamate 1 μM / glycine 100 μM, -80 mV, peak amplitude increase; for EC50: read-out: EC50. The source says:
Whole-Cell Patch Clamp of Mammalian Cells (Syncropatch 384i (Nanion Technologies))
Whole-cell patch clamp electrophysiology was used to investigate the effects of compounds on GluN1/GluN2A N-methyl-D-aspartate (NMDA) glutamate receptors expressed in mammalian cells.
Human embryonic kidney (HEK293) cells expressing the recombinant human GluN1/GluN2A receptor under the control of a tetracycline-inducible expression system were used. Cells were maintained in Dulbecco's Modified Eagle's Medium (DMEM) with 1% glutamine, 10% Tetracycline System Approved fetal bovine serum (FBS), and NMDA inhibitors. Cells were cultured in a humidified 5% CO2 incubator at 37° C. Cells were induced with 50 ng/ml tetracycline 18-24 hours prior to testing. A cocktail of channel blockers was added to the media to prevent cell death.
Cells were 60-80% confluent at the time of harvest. Cells were detached from the flask TrypLE Enzyme Express (Thermo Fisher) at 37° C., and then cold extracellular solution was added to the flask, followed by incubation at 4° C. and then trituration of the cells. The cell solution was then placed on a shaker on the Syncropatch platform at 10° C. with a shake speed of a minimum 200 rpm for at least 30 minutes prior to testing.
Extracellular (EC) solution (in mM) —140 NaCl, 4 KCl, 5 CaCl2, 10 HEPES, 5 Glucose, pH 7.4 with NaOH. All external solutions contained 0.2% DMSO and 0.01% Kolliphor® EL (C5135, Sigma) throughout the experiment.
Intracellular (IC) solution (in mM) —120 CsF, 10 mM EGTA, 10 NaCl, 10 HEPES, 4 NaATP, 2 MgCl2, pH 7.2 with CsOH.
First, the DMSO Master Plate was prepared, in which the DMSO stock of each test compound was serially diluted in 100% DMSO to 1000× the final assay concentration. Immediately prior to assay testing, the compounds were diluted 1:100 by transferring solutions from the DMSO Mast Plate to the Intermediate Plate pre-filled with EC solution using a Biomek FX automated liquid handling system. Compounds were then diluted further with extracellular solution into two pre-incubation plates—1) compound from the Intermediate Plate was mixed with EC solution at a 1:5 dilution to create a 2× Compound Pre-Incubation Plate which was diluted a further 1:2 when added to the Syncropatch for the initial compound pre-incubation. And 2) compound from the Intermediate plate was mixed with EC solution at a 1:10 Dilution to create the 1× Compound Pre-Incubation Plate, which was used for subsequent compound pre-incubations. Finally, a Compound+Agonist Plate was prepared by mixing compound from the 2× Compound Pre-Incubation Plate with 2× concentration of co-agonists in a 1:1 ratio.
Each experiment sequentially included cell catching, sealing, whole-cell formation, liquid application, recording and data acquisition. Whole-cell patch clamp recordings were performed using multi-hole high resistance chips on the SyncroPatch 384i (Nanion Technologies). A steady-state voltage pulse at -80 mV was applied throughout the assay and a 10 second recording window was triggered around 1 second prior to application of co-agonists. Currents were leak corrected and sampled at 5 kHz.
A fast application was used, in which 5 μl co-agonist was rapidly applied at a speed of 30 μl/s and then rapidly removed from the well. To test for modulator activity, the co-agonists glutamate (1 μM) and glycine (100 μM) were applied three times to show activation reproducibility, followed by 120 seconds pre-incubation of test compound alone. The test compound was then re-applied in the presence of co-agonists two times. This was followed by application of the agonist alone, although test compound may not be fully washed from the well prior to this step. Finally, a saturating concentration of co-agonists (glutamate 100 μM/glycine 100 μM) was applied.
The voltage protocol generation data collection and analysis were performed on PatchControll384 and DataControll384. […]

T1 sequence (Q12879 23-1464, other chains not shown): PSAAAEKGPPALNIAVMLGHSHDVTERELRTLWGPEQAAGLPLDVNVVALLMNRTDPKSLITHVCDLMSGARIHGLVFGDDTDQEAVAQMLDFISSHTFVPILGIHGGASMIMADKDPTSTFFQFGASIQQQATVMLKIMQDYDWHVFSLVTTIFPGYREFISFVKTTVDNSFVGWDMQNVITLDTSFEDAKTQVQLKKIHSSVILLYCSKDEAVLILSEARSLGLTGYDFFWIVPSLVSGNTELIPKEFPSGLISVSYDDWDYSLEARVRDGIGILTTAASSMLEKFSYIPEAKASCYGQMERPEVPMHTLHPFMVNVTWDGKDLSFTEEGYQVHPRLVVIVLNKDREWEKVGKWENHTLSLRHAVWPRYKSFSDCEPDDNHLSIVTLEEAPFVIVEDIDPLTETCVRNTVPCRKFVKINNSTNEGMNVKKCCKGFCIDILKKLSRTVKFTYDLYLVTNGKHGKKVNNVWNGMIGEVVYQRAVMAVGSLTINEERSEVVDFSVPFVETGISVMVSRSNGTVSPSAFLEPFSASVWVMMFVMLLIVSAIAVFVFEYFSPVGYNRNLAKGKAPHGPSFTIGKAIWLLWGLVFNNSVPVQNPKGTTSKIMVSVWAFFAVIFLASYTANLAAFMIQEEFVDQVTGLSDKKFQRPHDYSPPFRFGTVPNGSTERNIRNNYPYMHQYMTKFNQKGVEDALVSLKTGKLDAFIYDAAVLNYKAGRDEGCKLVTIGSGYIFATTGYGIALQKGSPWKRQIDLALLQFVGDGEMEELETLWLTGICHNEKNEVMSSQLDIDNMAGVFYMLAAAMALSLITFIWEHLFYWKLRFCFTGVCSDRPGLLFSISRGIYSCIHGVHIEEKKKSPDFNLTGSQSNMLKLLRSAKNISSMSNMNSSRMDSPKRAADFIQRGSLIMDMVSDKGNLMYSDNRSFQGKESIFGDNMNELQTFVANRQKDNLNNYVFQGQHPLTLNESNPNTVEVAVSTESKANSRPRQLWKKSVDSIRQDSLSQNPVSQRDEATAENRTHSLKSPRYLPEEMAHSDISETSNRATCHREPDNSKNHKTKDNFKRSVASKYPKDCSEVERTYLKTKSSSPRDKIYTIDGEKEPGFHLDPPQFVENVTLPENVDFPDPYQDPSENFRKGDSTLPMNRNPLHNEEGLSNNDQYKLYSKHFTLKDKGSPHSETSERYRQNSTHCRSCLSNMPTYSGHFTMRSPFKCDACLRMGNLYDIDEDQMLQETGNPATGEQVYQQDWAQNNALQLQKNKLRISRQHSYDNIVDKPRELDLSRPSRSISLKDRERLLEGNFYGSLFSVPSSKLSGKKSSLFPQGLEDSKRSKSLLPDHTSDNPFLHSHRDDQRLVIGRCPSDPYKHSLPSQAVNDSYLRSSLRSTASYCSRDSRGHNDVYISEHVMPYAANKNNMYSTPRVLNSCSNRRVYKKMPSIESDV

Consider `CC[C@]1(O)CC[C@@]2(C)C(=CC[C@H]3[C@@H]4CC[C@H]([C@@H](CCCC(C)(C)O)OC)[C@@]4(C)CC[C@@H]32)C1` [Compound A-12, (3S,8S,9S,10R,13S,14S,17S)-3-ethyl-17-((R)-5-hydroxy-1-methoxy-5-methylhexyl)-10,13-dimethyl-2,3,4,7,8,9,10,11,12,13,14,15,16,17-tetradecahydro-1H-cyclopenta[a]phenanthren-3-ol], for which, where the note is “Table A-2”, the Emax is 100 to 200% and the EC50 lay in the range of 1 to 100 nM.

As for `CC[C@]1(O)CC[C@@]2(C)C(=CC[C@H]3[C@@H]4CC[C@H]([C@@H](CC[C@@](C)(O)C(F)(F)F)OC)[C@@]4(C)CC[C@@H]32)C1` [Compound A-13, (3S,8S,9S,10R,13S,14S,17S)-3-ethyl-10,13-dimethyl-17-((1R,4R)-5,5,5-trifluoro-4-hydroxy-1-methoxy-4-methylpentyl)-2,3,4,7,8,9,10,11,12,13,14,15,16,17-tetradecahydro-1H-cyclopenta[a]phenanthren-3-ol], under “Table A-2”, the Emax was above 200% and the EC50 lay within 500 to 1000 nM.

Regarding `CC[C@]1(O)CC[C@@]2(C)C(=CC[C@H]3[C@@H]4CC[C@H]([C@@H](CC[C@](C)(O)C(F)(F)F)OC)[C@@]4(C)CC[C@@H]32)C1` [Compound A-14, (3S,8S,9S,10R,13S,14S,17S)-3-ethyl-10,13-dimethyl-17-((1R,4S)-5,5,5-trifluoro-4-hydroxy-1-methoxy-4-methylpentyl)-2,3,4,7,8,9,10,11,12,13,14,15,16,17-tetradecahydro-1H-cyclopenta[a]phenanthren-3-ol], under “Table A-2”, the Emax is above 200% and the EC50 fell in the range of 1 to 100 nM. The corresponding values for `CC[C@]1(O)CC[C@@]2(C)C(=CC[C@H]3[C@@H]4CC[C@H]([C@@H](CC[C@@H](O)C(C)C)OC)[C@@]4(C)CC[C@@H]32)C1` [Compound A-15, (3S,8S,9S,10R,13S,14S,17S)-3-ethyl-17-((1R,4R)-4-hydroxy-1-methoxy-5-methylhexyl)-10,13-dimethyl-2,3,4,7,8,9,10,11,12,13,14,15,16,17-tetradecahydro-1H-cyclopenta[a]phenanthren-3-ol] are above 200% and 1 to 100 nM.

On to `CC[C@]1(O)CC[C@@]2(C)C(=CC[C@H]3[C@@H]4CC[C@H]([C@@H](CC[C@H](O)C(C)C)OC)[C@@]4(C)CC[C@@H]32)C1` [Compound A-16, (3S,8S,9S,10R,13S,14S,17S)-3-ethyl-17-((1R,4S)-4-hydroxy-1-methoxy-5-methylhexyl)-10,13-dimethyl-2,3,4,7,8,9,10,11,12,13,14,15,16,17-tetradecahydro-1H-cyclopenta[a]phenanthren-3-ol], for which, where the note is “Table A-2”, the Emax was above 200% and the EC50 fell in the range of 1 to 100 nM.

`CC[C@]1(O)CC[C@@]2(C)[C@@H](CC[C@@H]3[C@@H]2CC[C@]2(C)[C@@H]([C@H](CC[C@H](O)C(C)C)C(F)(F)F)CC[C@@H]32)C1` [Compound A-17, (3S,5S,8R,9S,10S,13S,14S,17R)-3-ethyl-10,13-dimethyl-17-((2S,5S)-1,1,1-trifluoro-5-hydroxy-6-methylheptan-2-yl)hexadecahydro-1H-cyclopenta[a]phenanthren-3-ol]: the EC50 (Table A-2) is above 1000 nM. On the same count and under the same terms, next, `CC[C@]1(O)CC[C@@]2(C)[C@@H](CC[C@@H]3[C@@H]2CC[C@]2(C)[C@@H]([C@H](CCCC(C)(C)O)C(F)(F)F)CC[C@@H]32)C1` [Compound A-18, (3S,5S,8R,9S,10S,13S,14S,17R)-3-ethyl-10,13-dimethyl-17-((S)-1,1,1-trifluoro-6-hydroxy-6-methylheptan-2-yl)hexadecahydro-1H-cyclopenta[a]phenanthren-3-ol]: above 1000 nM; `CC[C@@H](CCCC(C)(C)O)[C@H]1CC[C@H]2[C@@H]3CC[C@H]4C[C@](O)(CC)CC[C@]4(C)[C@H]3CC[C@]12C` [Compound A-20, (3S,5S,8R,9S,10S,13R,14S,17R)-3-ethyl-17-((S)-7-hydroxy-7-methyloctan-3-yl)-10,13-dimethylhexadecahydro-1H-cyclopenta[a]phenanthren-3-ol]: above 1000 nM.

With `CC[C@]1(O)CC[C@@]2(C)[C@@H](CC[C@@H]3[C@@H]2CC[C@]2(C)[C@@H]([C@@H](CC[C@@](C)(O)C(F)(F)F)OC)CC[C@@H]32)C1` [Compound A-23, (3S,5S,8R,9S,10S,13S,14S,17S)-3-ethyl-10,13-dimethyl-17-((1R,4R)-5,5,5-trifluoro-4-hydroxy-1-methoxy-4-methylpentyl) hexadecahydro-1H-cyclopenta[a]phenanthren-3-ol], the EC50 (Table A-2) was 500 to 1000 nM. On to `CC[C@]1(O)CC[C@@]2(C)[C@@H](CC[C@@H]3[C@@H]2CC[C@]2(C)[C@@H]([C@@H](CC[C@](C)(O)C(F)(F)F)OC)CC[C@@H]32)C1` [Compound A-24, (3S,5S,8R,9S,10S,13S,14S,17S)-3-ethyl-10,13-dimethyl-17-((1R,4S)-5,5,5-trifluoro-4-hydroxy-1-methoxy-4-methylpentyl) hexadecahydro-1H-cyclopenta[a]phenanthren-3-ol], for which, where the note is “Table A-2”, the half-maximal effective concentration (EC50) is 100 to 500 nM.

`CC[C@]1(O)CC[C@@]2(C)[C@@H](CC[C@H]3[C@@H]4[C@@H]5C[C@@H]5[C@H]([C@H](C)CCCC(C)(C)O)[C@@]4(C)CC[C@@H]32)C1` [Compound B-1, (2S,4aS,4bS,6aR,7S,7aS,8aR,8bS,8cR,10aS)-2-ethyl-7-((R)-6-hydroxy-6-methylheptan-2-yl)-4a,6a-dimethyloctadecahydrocyclopropa[4,5]cyclopenta[1,2-a]phenanthren-2-ol]: under “Table B-2”, the maximum response (Emax) is above 200% and the concentration giving a half-maximal response (EC50) lay within 1 to 100 nM.

Turning to `CC[C@]1(O)CC[C@@]2(C)[C@@H](CC[C@H]3[C@@H]4[C@@H]5C[C@@H]5[C@H]([C@H](C)CC[C@@](C)(O)C(F)(F)F)[C@@]4(C)CC[C@@H]32)C1` [Compound B-2, (2S,4aS,4bS,6aR,7S,7aS,8aR,8bS,8cR,10aS)-2-ethyl-4a,6a-dimethyl-7-((2R,5R)-6,6,6-trifluoro-5-hydroxy-5-methylhexan-2-yl)octadecahydrocyclopropa[4,5]cyclopenta[1,2-a]phenanthren-2-ol], where the note is “Table B-2”, the Emax was above 200% and the 50% effective concentration (EC50) lay within 100 to 500 nM.

For `CC[C@]1(O)CC[C@@]2(C)[C@@H](CC[C@H]3[C@@H]4[C@@H]5C[C@@H]5[C@H]([C@H](C)CC[C@](C)(O)C(F)(F)F)[C@@]4(C)CC[C@@H]32)C1` [Compound B-3, (2S,4aS,4bS,6aR,7S,7aS,8aR,8bS,8cR,10aS)-2-ethyl-4a,6a-dimethyl-7-((2R,5S)-6,6,6-trifluoro-5-hydroxy-5-methylhexan-2-yl)octadecahydrocyclopropa[4,5]cyclopenta[1,2-a]phenanthren-2-ol], under “Table B-2”, the Emax was above 200% and the concentration giving a half-maximal response (EC50) lay within 1 to 100 nM. Turning to `CC[C@]1(O)CC[C@@]2(C)[C@@H](CC[C@H]3[C@@H]4[C@H]5C[C@H]5[C@H]([C@H](C)CCCC(C)(C)O)[C@@]4(C)CC[C@@H]32)C1` [Compound B-4, (2S,4aS,4bS,6aR,7S,7aR,8aS,8bS,8cR,10aS)-2-ethyl-7-((R)-6-hydroxy-6-methylheptan-2-yl)-4a,6a-dimethyloctadecahydrocyclopropa[4,5]cyclopenta[1,2-a]phenanthren-2-ol], where the note is “Table B-2”, the maximal effect (Emax) is above 200% and the EC50 is 1 to 100 nM.
